Source: patent US20240173432A1, “Compositions and Methods for Treatment of Myotonic Dystrophy Type 1 with CRISPR/SluCas9” (Vertex Pharmaceuticals Incorporated, priority 2021, published 2024)

Experiments:
[1] = system: CTG repeat in the 3′ UTR of human DMPK gene; assay: Dual-cut screening: CTG repeat excision efficiency by loss-of-signal ddPCR; assay type: cell-based; conditions: sgRNA pair, primary DM1 patient myoblasts; for Excision efficiency (by ddPCR): 3 μM DNA-PKi Compound 6 for 48 hours; for Excision efficiency by ddPCR (Vehicle): vehicle (DMSO)
Method: RNPs were assembled with recombinant SluCas9 protein and chemically modified sgRNAs at a ratio of 1:3 (protein:sgRNA). For SINGLE-cut screening, RNP complexes were assembled with 30 pmol of SluCas9 and 90 pmol of sgRNA in P5 Primary Cell Nucleofector Solution (Lonza). After incubation at room temperature for 20 minutes, 10 μL of RNP complex were mixed with two hundred thousand of primary myoblasts resuspended in 10 μL of P5 Nucleofector Solution. For DOUBLE-cut screening, RNP complexes were first assembled for individual sgRNAs with 20 pmol of SluCas9 protein and 60 pmol of sgRNAs in 5 μL of P5 Nucleofector Solution. After incubation at room temperature for 20 minutes, the two RNP complexes (one for upstream sgRNA and one for downstream sgRNA) were mixed at 1:1 ratio and then further mixed with two hundred thousand of primary myoblasts resuspended in 10 μL of P5 Nucleofector Solution.
The Nucleofector 96-well Shuttle System (Lonza) was used to deliver the SluCa9/sgRNA RNPs into primary DM1 patient myoblasts using the nucleofection program CM138. Following nucleofection, myoblasts from each well of nucleofection shuttle were split into six wells of the 96-well cell culture plate (Greiner, 655090) coated with matrigel. The first three wells were treated with DMSO for 48 hrs before changing to fresh myoblast growth medium, and the other three wells were treated with 3 μM of DNA-PKi Compound 6 for 48 hrs before changing to fresh myoblast growth medium. 72 hrs post nucleofection, two wells of DMSO-treated myoblasts and two wells of DNA-PKi-treated myoblasts from each nucleofection were harvested for genomic DNA extraction using the Kingfisher Flex purification system (Thermal Fisher), whereas one well of DMSO-treated myoblasts and one well of DNA-PKi-treated myoblasts were stained for RNA foci by FISH staining.
The primers and probes of ddPCR are designed using the online primer design software Primer3Plus (http://www.bioinformatics.nl/cgi-bin/primer3plus/primer3plus.cgi). In some embodiments, two target primers/probe sets were used to detect CTG repeat excision, and a reference primers/probe set were used to amplify a region located in Exon 1 of human DMPK gene and to serve as a reference control for the target sets. The 24 μL of ddPCR reaction consists of 12 μL of Supermix for Probes (no dUTP) (Bio-Rad Laboratories), 1 μL of Reference primers mix (21.6 μM), 1 μL of Reference probe (6 μM), 1 μL of Target primers mix (21.6 μM), 1 μL of Target probe (6 μM), and 8 μL of sample genomic DNA. Droplets were generated using probe oil with the QX200 Droplet Generator (Bio-Rad Laboratories). Droplets were transferred to a 96-well PCR plate, sealed and cycled in a C1000 deep well Thermocycler (Bio-Rad Laboratories) under the following cycling protocol: 1 cycle at 95° C. for 10 min; 40 cycles of 94° C. for 30 see, and 58° C. for 1 min; 1 cycle at 98° C. for 10 min (for enzyme inactivation). The cycled plate was then transferred and read in the FAM and HEX channels using the Bio-Rad QX200 Droplet Reader (Bio-Rad Laboratories). ddPCR analysis is performed with the Bio-Rad QuantaSoft Pro Software.
To assess the efficiency of SluCas9 sgRNA pairs for inducing CTG repeat excision, Dual-cut screening was performed in which individual SluCas9 sgRNAs and recombinant SluCas9 protein were assembled into ribonucleoprotein (RNP) and delivered into primary DM1 patient myoblasts. Nucleofected myoblasts were treated with either DMSO (vehicle) or 3 μM of DNA-dependent Protein Kinase Inhibitor (DNA-PKi) Compound 6 for 48 hours. 72 hours post-nucleofection, myoblasts were subjected to either genomic DNA isolation or RNA foci staining by fluorescence in situ hybridization (FISH).
CRISPR repeat excision efficiency was assessed for each of the 88 pairs (FIG. 8A-B and Table 5). CTG repeat excision efficiency percentages are shown for vehicle (DMSO; white bars) and with DNA-PKi (black bars) (FIG. 8B and Table 5).

[2] = system: CUG foci in primary DM1 patient myoblasts; assay: Dual-cut screening: FISH staining of CUG RNA foci; assay type: cell-based, human; conditions: sgRNA pair, primary DM1 patient myoblasts; for % of CUG foci free nuclei (DNA-PKi): 3 μM DNA-PKi Compound 6 for 48 hours; for % of CUG foci free nuclei (Vehicle): vehicle (DMSO)
Procedure, shortened: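 SluCas9 RNPs (protein:sgRNA 1:3; 20 pmol SluCas9 + 60 pmol sgRNA per guide, paired 1:1) nucleofected into primary DM1 patient myoblasts, then DMSO or 3 μM DNA-PKi Compound 6 for 48 h. At 72 h post-nucleofection cells fixed, FISH-stained with Cy3-PNA(CAG)5 probe plus anti-MBNL1 and Hoechst; % CUG foci-free nuclei by high-content confocal imaging.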

| Substance | Excision efficiency (by ddPCR) [1] | Excision efficiency by ddPCR (Vehicle) [1] | % of CUG foci free nuclei (DNA-PKi) [2] [%] | % of CUG foci free nuclei (Vehicle) [2] [%] |
| --- | --- | --- | --- | --- |
| SluU10 + SluD18 (guide 1 CCCGTTGGAAGACTGAGTGCCC; guide 2 TGGAGGATGGAACACGGACGGC; guide RNA; listed as DNA, chemistry not fully specified) | 60.59 | 51.55 | 89.08 | 71.69 |
| SluU10 + SluD32 (guide 1 CCCGTTGGAAGACTGAGTGCCC; guide 2 CTTGTGCATGACGCCCTGCTCT; guide RNA; listed as DNA, chemistry not fully specified) | 72.52 | 48.62 | 90.08 | 77.29 |
| SluU10 + SluD34 (guide 1 CCCGTTGGAAGACTGAGTGCCC; guide 2 CGCGCCAGACGCTCCCCAGAGC; guide RNA; listed as DNA, chemistry not fully specified) | 68.59 | 52.12 | 88.63 | 80.9 |
| SluU10 + SluD48 (guide 1 CCCGTTGGAAGACTGAGTGCCC; guide 2 GAGAGCAGCGCAAGTGAGGAGG; guide RNA; listed as DNA, chemistry not fully specified) | 62.29 | 44.14 | 88.02 | 69.11 |
| SluU10 + SluD56 (guide 1 CCCGTTGGAAGACTGAGTGCCC; guide 2 CCAGCCGGCTCCGCCCGCTTCG; guide RNA; listed as DNA, chemistry not fully specified) | 54.92 | 33.89 | 83.68 | 49.83 |
| SluU10 + SluD68 (guide 1 CCCGTTGGAAGACTGAGTGCCC; guide 2 CCTGTAGCCTGTCAGCGAGTCG; guide RNA; listed as DNA, chemistry not fully specified) | 61.29 | 42.37 | 89.5 | 68.15 |
| SluU10 + SluD73 (guide 1 CCCGTTGGAAGACTGAGTGCCC; guide 2 CCAAAACGTGGATTGGGGTTGT; guide RNA; listed as DNA, chemistry not fully specified) | 64.77 | 46.13 | 88.46 | 69.97 |
| SluU10 + SluD83 (guide 1 CCCGTTGGAAGACTGAGTGCCC; guide 2 GTGGGGACAGACAATAAATACC; guide RNA; listed as DNA, chemistry not fully specified) | 68.8 | 47.63 | 89.5 | 74.17 |
| SluU10 + SluD100 (guide 1 CCCGTTGGAAGACTGAGTGCCC; guide 2 GTCCAGAGCTTTGGGCAGATGG; guide RNA; listed as DNA, chemistry not fully specified) | 64.25 | 44.65 | 88.24 | 67.81 |
| SluU21 + SluD06 (guide 1 GCTCGGAGCGGTTGTGAACTGG; guide 2 CCAGGCTGAGGCCCTGACGTGG; guide RNA; listed as DNA, chemistry not fully specified) | 66.01 | 46.6 | 88.47 | 48.27 |
| SluU21 + SluD14 (guide 1 GCTCGGAGCGGTTGTGAACTGG; guide 2 ATGGGCAAACTGCAGGCCTGGG; guide RNA; listed as DNA, chemistry not fully specified) | 63.05 | 54.02 | 89.6 | 61.25 |
| SluU21 + SluD18 (guide 1 GCTCGGAGCGGTTGTGAACTGG; guide 2 TGGAGGATGGAACACGGACGGC; guide RNA; listed as DNA, chemistry not fully specified) | 65.52 | 45.61 | 89.21 | 54.26 |
| SluU21 + SluD32 (guide 1 GCTCGGAGCGGTTGTGAACTGG; guide 2 CTTGTGCATGACGCCCTGCTCT; guide RNA; listed as DNA, chemistry not fully specified) | 70.09 | 41.94 | 88.76 | 52.71 |
| SluU21 + SluD34 (guide 1 GCTCGGAGCGGTTGTGAACTGG; guide 2 CGCGCCAGACGCTCCCCAGAGC; guide RNA; listed as DNA, chemistry not fully specified) | 61.75 | 42.16 | 88.43 | 56.01 |
| SluU21 + SluD48 (guide 1 GCTCGGAGCGGTTGTGAACTGG; guide 2 GAGAGCAGCGCAAGTGAGGAGG; guide RNA; listed as DNA, chemistry not fully specified) | 59.19 | 36.66 | 86.36 | 51.76 |
| SluU21 + SluD56 (guide 1 GCTCGGAGCGGTTGTGAACTGG; guide 2 CCAGCCGGCTCCGCCCGCTTCG; guide RNA; listed as DNA, chemistry not fully specified) | 59.97 | 25.94 | 85.39 | 31.9 |
| SluU21 + SluD68 (guide 1 GCTCGGAGCGGTTGTGAACTGG; guide 2 CCTGTAGCCTGTCAGCGAGTCG; guide RNA; listed as DNA, chemistry not fully specified) | 58.7 | 35.67 | 87.57 | 51.5 |
| SluU21 + SluD73 (guide 1 GCTCGGAGCGGTTGTGAACTGG; guide 2 CCAAAACGTGGATTGGGGTTGT; guide RNA; listed as DNA, chemistry not fully specified) | 61.57 | 36.17 | 88.18 | 51.12 |
| SluU21 + SluD83 (guide 1 GCTCGGAGCGGTTGTGAACTGG; guide 2 GTGGGGACAGACAATAAATACC; guide RNA; listed as DNA, chemistry not fully specified) | 63.44 | 37.42 | 89.23 | 51.65 |
